In US20090232735A1, “USE OF FRUCTOSE-BASED THERAPIES FOR THE TREATMENT OF CANCER” (CEDARS-SINAI MEDICAL CENTER, priority 2005, published 2009):

Experiments:
Assay type in all cases: cell-based, human
[1] = system: PANC-1 pancreatic cancer cells; assay: BRDU uptake in PANC-1 cells; details: PANC-1, 5.5 mM fructose, 72 h
Experimental: FIG. 16 depicts BRDU uptake following treatment with glucose or fructose in accordance with an embodiment of the present invention. PANC-1 cells were pre-incubated in 2 mM glucose prior to treatment with 5.5 mM glucose or fructose for 72 h. BRDU (0.01 mg/ml) was added to the medium at 48 h, and BRDU-uptake quantified at 72 h.
As a further measure of PANC-1 proliferative rates, the inventors compared bromodeoxyuridine (BRDU) uptake following PANC-1 cell treatment as before with 2 mM, and 5.5 mM glucose, or 5.5 mM fructose for 72 h. In the final 12 h, 10 μM BRDU was added to the glucose-, and fructose-treated cells, after which BRDU-positive cells were counted. […] A further question the inventors sought to address was would the fructose-induced pancreatic cancer proliferative rates be maintained if the PANC-1 cells were also exposed to, and able to utilize their customary culture glucose concentrations. Therefore, the inventors cultured PANC-1 cells for 72 h in a range of glucose concentrations (0-15 mM) admixed with a range of fructose concentrations (0-15 mM).

[2] = system: primary cultures of fresh surgically resected pancreatic cancers; assay: BRDU uptake in primary cultures of resected pancreatic cancers; details: all 5 primary pancreatic cancers, 5.5 mM, 72 h
Experimental: FIG. 18 depicts BRDU incorporation by pancreatic cells in accordance with an embodiment of the present invention. Freshly resected pancreatic cancers were mechanically, and enzymatically dispersed, and cells were pre-incubated in 2 mM glucose prior to treatment with 5.5 mM glucose or fructose for 72 h. BRDU (10 μM) was added to the medium at 48 h, and BRDU-uptake quantified at 72 h.
As immortalized cell-lines, such as PANC-1 pancreatic cancer cells, can become dedifferentiated after repeated passages, and in order to translate these findings in the PANC-1 cells to patients with pancreatic cancer, the inventors also examined proliferative rates in primary cultures of fresh surgically resected pancreatic cancers, following incubation in 2 mM, and 5.5 mM glucose or 5.5 mM fructose. Briefly, after mechanical and enzymatic (trypsin and DNAse) disaggregation, aliquots of tumor cells were seeded in 6-well plates, and incubated in standard DMEM media with 10% fetal bovine serum, and 2 mM glucose, 5.5 mM glucose, or 5.5 mM fructose for 72 h. As before in the PANC-1 experiments, BRDU (10 μM) was added in the […] of incubation in the sugars, following which BRDU-uptake was quantified.

[3] = system: fructokinase-1 (FK-1) mRNA; assay: Fructokinase-1 mRNA by RT-PCR in MCF-7 cells; details: MCF-7, 5 mM sugar, compared with 2 mM glucose
Experimental: FIG. 7 depicts fructokinase-1 expression in accordance with an embodiment of the present invention. Breast cancer cells (MCF-7) express Fructokinase-1 (FK-1). RT-PCR was used to measure fructokinase-1 (FK-1) mRNA levels in MCF-7 cells following growth in 2 mM glucose, 5.5 mM glucose, or 5.5 mM fructose for 24 h, and in two human breast cancers (BT 1 & 2), and matched adjacent normal breast tissue (NB 1 & 2) from the same individual. […] Human liver, and exclusion of template served as positive and negative controls.
The inventors used RT-PCR analysis and specific primer pairs (SEQ ID NO: 1 (3′[…]), SEQ ID NO: 2 (5′[…])) to examine fructokinase-1 (FK-1) mRNA levels in glucose- or fructose-treated breast cancer cells. […] Also examined were FK-1 mRNA levels in two surgically resected human breast cancers, and paired adjacent normal breast tissue from the same individual. FK-1 mRNA was detectable in both normal and tumor tissue.

O=C(CO)[C@@H](O)[C@H](O)[C@H](O)CO [fructose]
BRDU-uptake higher than with 5.5 mM glucose [1]: ~75% | proliferative rates (BRDU-uptake) in fructose compared to glucose [2]: higher proliferative rates | FK-1 mRNA levels (RT-PCR) [3]: highest FK-1 levels
